Measured values published in US20030118627A1 (DABUR RESEARCH FOUNDATION, priority 2001, published 2003).

Key:
KB = assay: MTT cytotoxicity assay, KB oral; format: cell-based; conditions: Homo sapiens, 24 h, read-out: ED50 values of cytotoxicity
Procedure: (§1) Briefly, a […] MTT cytotoxicity assay was performed, which is based on the principle of uptake of MTT (3-(4,5-dimethylthiazol-2-yl)-2,5-diphenyl tetrazolium bromide), a tetrazolium salt, by the metabolically active cells where it is metabolized by active mitochondria into a blue colored formazan product that is read spectrophoto-metrically. MTT was dissolved in phosphate buffered saline with a pH of 7.4 to obtain an MTT concentration of 5 mg/ml; the resulting mixture was filtered through a 0.22 micron filter to sterilize and remove a small amount of insoluble residue. For each type of tumor cell, 20,000 to 50,000 cells were seeded in a 96-well culture plate and incubated with the combination in a CO2 incubator for 24 hours. […] The assay was terminated after 24 hours by adding 100 ug (20 ul) of MTT to each well, then incubating for additional one hour, and finally adding 50 ul of 10% SDS-0.01N HCl to each well to lyse the cells and dissolve formazan. After incubating for one hour, the plate was read spectrophotometrically at 540 nm and the percentage cytotoxicity calculated.

DU145 = assay: MTT cytotoxicity assay, DU145 prostate; format: cell-based; conditions: Homo sapiens; for cytotoxicity at 1000 µM: DU-145, 1.0 mM; for cytotoxicity at 1000 µM / cytotoxicity at 2500 µM / cytotoxicity at 4000 µM / cytotoxicity at 5000 µM / cytotoxicity at 10000 µM: read-out: Percent cytotoxicity; for cytotoxicity at 2500 µM: DU-145, 2.5 mM; for cytotoxicity at 4000 µM: DU-145, 4 mM; for cytotoxicity at 5000 µM: DU-145, 5 mM; for cytotoxicity at 10000 µM: DU-145, 10 mM; for IC50: DU-145, 24 h, read-out: ED50 values of cytotoxicity
Procedure: as §1

293 = assay: MTT cytotoxicity assay, 293 kidney; format: cell-based; conditions: Homo sapiens, HEK293, 24 h, read-out: ED50 values of cytotoxicity
Procedure: as §1

PTC = assay: MTT cytotoxicity assay, PTC colon; format: cell-based; conditions: Homo sapiens; for cytotoxicity at 1000 µM: 1.0 mM; for cytotoxicity at 1000 µM / cytotoxicity at 2500 µM / cytotoxicity at 4000 µM / cytotoxicity at 5000 µM / cytotoxicity at 10000 µM: read-out: Percent cytotoxicity; for cytotoxicity at 2500 µM: 2.5 mM; for cytotoxicity at 4000 µM: 4 mM; for cytotoxicity at 5000 µM: 5 mM; for cytotoxicity at 10000 µM: 10 mM; for IC50: 24 h, read-out: ED50 values of cytotoxicity
Procedure: as §1

Hep2 = assay: MTT cytotoxicity assay, Hep2 larynx; format: cell-based; conditions: Homo sapiens, HEp-2, 24 h, read-out: ED50 values of cytotoxicity
Procedure: as §1

MCF7 = assay: MTT cytotoxicity assay, MCF7 breast; format: cell-based; conditions: Homo sapiens; for IC50: MCF7, 24 h, MCF 7 Breast, read-out: ED50 values of cytotoxicity; for cytotoxicity at 1000 µM / cytotoxicity at 2500 µM / cytotoxicity at 4000 µM / cytotoxicity at 5000 µM / cytotoxicity at 10000 µM: MCF7 breast, read-out: Percent cytotoxicity; for cytotoxicity at 1000 µM: 1.0 mM; for cytotoxicity at 2500 µM: 2.5 mM; for cytotoxicity at 4000 µM: 4 mM; for cytotoxicity at 5000 µM: 5 mM; for cytotoxicity at 10000 µM: 10 mM
Procedure: as §1

Swiss albino mice = conditions: both, mouse, in vivo, po, 15 days
Procedure: Acute toxicity studies were performed using the oral route of administration.
A batch of 5 female and 5 male mice each was administered the test substance by oral route. […] Another batch of 5 female and 5 male served as control.
Observations were made three times on the day of dosing and twice daily thereafter for the remainder of 14 days or until reversible toxic signs or symptoms subsided. All gross visible toxic signs and symptoms were recorded. Body weights were recorded prior to dosing and weekly thereafter.

L132 = assay: MTT cytotoxicity assay, L132 lung; format: cell-based; conditions: Homo sapiens; for cytotoxicity at 1000 µM: 1.0 mM; for cytotoxicity at 1000 µM / cytotoxicity at 2500 µM / cytotoxicity at 4000 µM / cytotoxicity at 5000 µM / cytotoxicity at 10000 µM: read-out: Percent cytotoxicity; for cytotoxicity at 2500 µM: 2.5 mM; for cytotoxicity at 4000 µM: 4 mM; for cytotoxicity at 5000 µM: 5 mM; for cytotoxicity at 10000 µM: 10 mM; for IC50: 24 h, read-out: ED50 values of cytotoxicity
Procedure: as §1

MOLT 4 = assay: MTT cytotoxicity assay, MOLT 4 leukemia; format: cell-based; conditions: Homo sapiens; for IC50: 24 h, Molt 4 Leukemia, read-out: ED50 values of cytotoxicity; for cytotoxicity at 1000 µM / cytotoxicity at 2500 µM / cytotoxicity at 4000 µM / cytotoxicity at 5000 µM / cytotoxicity at 10000 µM: MOLT 4 Leukemia, read-out: Percent cytotoxicity; for cytotoxicity at 1000 µM: 1.0 mM; for cytotoxicity at 2500 µM: 2.5 mM; for cytotoxicity at 4000 µM: 4 mM; for cytotoxicity at 5000 µM: 5 mM; for cytotoxicity at 10000 µM: 10 mM
Procedure: as §1

Miapaca2 = assay: MTT cytotoxicity assay, Miapaca2 pancreas; format: cell-based; conditions: Homo sapiens; for cytotoxicity at 1000 µM: MIA PaCa-2, 1.0 mM; for cytotoxicity at 1000 µM / cytotoxicity at 2500 µM / cytotoxicity at 4000 µM / cytotoxicity at 5000 µM / cytotoxicity at 10000 µM: read-out: Percent cytotoxicity; for cytotoxicity at 2500 µM: MIA PaCa-2, 2.5 mM; for cytotoxicity at 4000 µM: MIA PaCa-2, 4 mM; for cytotoxicity at 5000 µM: MIA PaCa-2, 5 mM; for cytotoxicity at 10000 µM: MIA PaCa-2, 10 mM; for IC50: MIA PaCa-2, 24 h, read-out: ED50 values of cytotoxicity
Procedure: as §1

INT 407 = assay: MTT cytotoxicity assay, INT 407 intestine; format: cell-based; conditions: Homo sapiens, 24 h, read-out: ED50 values of cytotoxicity
Procedure: as §1

PA 1 = assay: MTT cytotoxicity assay, PA 1 ovary; format: cell-based; conditions: Homo sapiens; for IC50: 24 h, PA 1 Ovarian, read-out: ED50 values of cytotoxicity; for cytotoxicity at 1000 µM / cytotoxicity at 2500 µM / cytotoxicity at 4000 µM / cytotoxicity at 5000 µM / cytotoxicity at 10000 µM: PA 1 Ovary, read-out: Percent cytotoxicity; for cytotoxicity at 1000 µM: 1.0 mM; for cytotoxicity at 2500 µM: 2.5 mM; for cytotoxicity at 4000 µM: 4 mM; for cytotoxicity at 5000 µM: 5 mM; for cytotoxicity at 10000 µM: 10 mM
Procedure: as §1

U87MG = assay: MTT cytotoxicity assay, U87MG glioblastoma; format: cell-based; conditions: Homo sapiens, U-87 MG, 24 h, read-out: ED50 values of cytotoxicity
Procedure: as §1

**Q.** Which results are given for `COC(=O)C1CCC(=O)N1C(OC(C)=O)C(C)=O` (stereo not drawn) [MGC-4, N-(1-acetoxy-2-ketopropyl)-methylpyroglutamate]?
**A.** IC50 (KB): 1550 ± 300 µM; cytotoxicity at 1000 µM (DU145): 28.9 ± 4.2%; cytotoxicity at 2500 µM (DU145): 58.9 ± 4.9%; cytotoxicity at 4000 µM (DU145): 82.1 ± 7.3%; cytotoxicity at 5000 µM (DU145): 85.6 ± 7.3%; cytotoxicity at 10000 µM (DU145): 87.9 ± 7.3%; IC50 (DU145): 1800 ± 300 µM; IC50 293: 1400 ± 100 µM; cytotoxicity at 1000 µM (PTC): 23.9 ± 3%; cytotoxicity at 2500 µM (PTC): 39 ± 5.2%; cytotoxicity at 4000 µM (PTC): 56.9 ± 5.9%; cytotoxicity at 5000 µM (PTC): 84.2 ± 7.4%; cytotoxicity at 10000 µM (PTC): 87.3 ± 6%; IC50 (PTC): 3800 ± 1100 µM; IC50 (Hep2): 3200 ± 800 µM; IC50 (MCF7): > 5000 µM; cytotoxicity at 1000 µM (MCF7): 0%; cytotoxicity at 2500 µM (MCF7): 0%; cytotoxicity at 4000 µM (MCF7): 3.8 ± 0.4%; cytotoxicity at 5000 µM (MCF7): 23.8 ± 0.8%; cytotoxicity at 10000 µM (MCF7): 31.9 ± 2.9%; safe dose (Swiss albino mice): 100 mg; cytotoxicity at 1000 µM (L132): 0%; cytotoxicity at 2500 µM (L132): 0%; cytotoxicity at 4000 µM (L132): 0%; cytotoxicity at 5000 µM (L132): 4.9 ± 0.6%; cytotoxicity at 10000 µM (L132): 37.9 ± 3.5%; IC50 (L132): > 5000 µM; IC50 (MOLT 4): 1500 ± 200 µM; cytotoxicity at 1000 µM (MOLT 4): 36.9 ± 3.9%; cytotoxicity at 2500 µM (MOLT 4): 57.9 ± 3.1%; cytotoxicity at 4000 µM (MOLT 4): 78.9 ± 4.9%; cytotoxicity at 5000 µM (MOLT 4): 88.4 ± 7.5%; cytotoxicity at 10000 µM (MOLT 4): 85.9 ± 7.3%; cytotoxicity at 1000 µM (Miapaca2): 0%; cytotoxicity at 2500 µM (Miapaca2): 3.9 ± 0.5%; cytotoxicity at 4000 µM (Miapaca2): 46.8 ± 4.9%; cytotoxicity at 5000 µM (Miapaca2): 57.9 ± 5.9%; cytotoxicity at 10000 µM (Miapaca2): 79.4 ± 4.8%; IC50 (Miapaca2): 4200 ± 1100 µM; IC50 (INT 407): 2300 ± 1100 µM; IC50 (PA 1): 1600 ± 200 µM; cytotoxicity at 1000 µM (PA 1): 28.9 ± 3.2%; cytotoxicity at 2500 µM (PA 1): 67.9 ± 4.9%; cytotoxicity at 4000 µM (PA 1): 87.9 ± 6.4%; cytotoxicity at 5000 µM (PA 1): 88.6 ± 6.9%; cytotoxicity at 10000 µM (PA 1): 88 ± 6.9%; IC50 (U87MG): 2400 ± 500 µM

**Q.** What does the source list for `CCOC(=O)C1CCC(=O)N1C(O)C(C)=O` (stereo not drawn) [MGC-7, N-(1-hydroxy-2-ketopropyl)-ethylpyroglutamate]?
**A.** IC50 (KB): 1850 ± 600 µM; cytotoxicity at 1000 µM (DU145): 56 ± 5.9%; cytotoxicity at 2500 µM (DU145): 65 ± 2.9%; cytotoxicity at 4000 µM (DU145): 78.4 ± 6.9%; cytotoxicity at 5000 µM (DU145): 83 ± 4.9%; cytotoxicity at 10000 µM (DU145): 89 ± 6.1%; IC50 (DU145): 850 ± 300 µM; IC50 293: 3100 ± 1300 µM; cytotoxicity at 1000 µM (PTC): 34.3 ± 1.9%; cytotoxicity at 2500 µM (PTC): 54.3 ± 4.9%; cytotoxicity at 4000 µM (PTC): 65.9 ± 4.8%; cytotoxicity at 5000 µM (PTC): 78.2 ± 3.9%; cytotoxicity at 10000 µM (PTC): 82.2 ± 6.1%; IC50 (PTC): 2400 ± 500 µM; IC50 (Hep2): 2500 ± 1100 µM; IC50 (MCF7): 2800 ± 1100 µM; cytotoxicity at 1000 µM (MCF7): 7 ± 1.3%; cytotoxicity at 2500 µM (MCF7): 10 ± 2.5%; cytotoxicity at 4000 µM (MCF7): 69 ± 3.2%; cytotoxicity at 5000 µM (MCF7): 85 ± 4.5%; cytotoxicity at 10000 µM (MCF7): 83 ± 4.5%; safe dose (Swiss albino mice): 100 mg; cytotoxicity at 1000 µM (L132): 0%; cytotoxicity at 2500 µM (L132): 0%; cytotoxicity at 4000 µM (L132): 0%; cytotoxicity at 5000 µM (L132): 0%; cytotoxicity at 10000 µM (L132): 0%; IC50 (L132): > 5000 µM; IC50 (MOLT 4): 1500 ± 200 µM; cytotoxicity at 1000 µM (MOLT 4): 39.4 ± 2.7%; cytotoxicity at 2500 µM (MOLT 4): 58.5 ± 3.8%; cytotoxicity at 4000 µM (MOLT 4): 59.1 ± 4.3%; cytotoxicity at 5000 µM (MOLT 4): 64.3 ± 4.9%; cytotoxicity at 10000 µM (MOLT 4): 73.4 ± 2%; cytotoxicity at 1000 µM (Miapaca2): 0%; cytotoxicity at 2500 µM (Miapaca2): 28 ± 1.5%; cytotoxicity at 4000 µM (Miapaca2): 89 ± 2.3%; cytotoxicity at 5000 µM (Miapaca2): 88 ± 4.1%; cytotoxicity at 10000 µM (Miapaca2): 85 ± 4.1%; IC50 (Miapaca2): 2400 ± 1000 µM; IC50 (INT 407): 2700 ± 1200 µM; IC50 (PA 1): 1200 ± 200 µM; cytotoxicity at 1000 µM (PA 1): 45.6 ± 1.9%; cytotoxicity at 2500 µM (PA 1): 58.4 ± 4.7%; cytotoxicity at 4000 µM (PA 1): 65.5 ± 3.9%; cytotoxicity at 5000 µM (PA 1): 79.9 ± 5.2%; cytotoxicity at 10000 µM (PA 1): 84.9 ± 5.4%; IC50 (U87MG): 1840 ± 600 µM
